Laboratory results reported in the supplement of paper PMC8741786.
In brackets after ≈: the same amount, converted by molar mass.

Tests used:
Assay in all cases: minimum inhibitory concentration (ETEST)
Neisseria mucosa/macacae = system: Neisseria mucosa/macacae
Protocol: (§1)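 Oropharyngeal Neisseria isolates from MSM and employees in Belgium were identified to species by MALDI-TOF MS. MICs of azithromycin, ceftriaxone and ciprofloxacin were determined by ETEST on GC agar after 24 h at 36.5 °C and 5-7% CO2, in mg/L. Values beyond the strip range are reported as >256 (azithromycin) or <0.016 (ceftriaxone); isolates that did not grow are NA.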

Neisseria meningitidis = system: Neisseria meningitidis
Protocol: as §1

Neisseria lactamica = conditions: population: general population, antibiotic use in previous 6 months: No
Protocol: as §1

Neisseria bacilliformis = conditions: isolate id (sample isolate): Co000780_5; population: general population; antibiotic use in previous 6 months: No
Protocol: as §1

CC[C@H]1OC(=O)[C@H](C)[C@@H](O[C@H]2C[C@@](C)(OC)[C@@H](O)[C@H](C)O2)[C@H](C)[C@@H](O[C@@H]2O[C@H](C)C[C@H](N(C)C)[C@H]2O)[C@](C)(O)C[C@@H](C)CN(C)[C@H](C)[C@@H](O)[C@]1(C)O [azithromycin]
Conditions | minimum inhibitory concentration [µg/mL]
Neisseria meningitidis, isolate id (sample isolate): 19040471_1, population: MSM, antibiotic use in previous 6 months: No | 0.38 (≈ 0.507 µM)
Neisseria meningitidis, isolate id (sample isolate): 19040855_1, population: MSM, antibiotic use in previous 6 months: No | 0.25 (≈ 0.334 µM)
Neisseria meningitidis, isolate id (sample isolate): 19040874_2, population: MSM, antibiotic use in previous 6 months: No | 2 (≈ 2.67 µM)
Neisseria meningitidis, isolate id (sample isolate): 19040900_2, population: MSM, antibiotic use in previous 6 months: No | 0.75 (≈ 1 µM)
Neisseria meningitidis, isolate id (sample isolate): 19042150_2, population: MSM, antibiotic use in previous 6 months: Yes | 1.5 (≈ 2 µM)
Neisseria meningitidis, isolate id (sample isolate): 19042756_3, population: MSM, antibiotic use in previous 6 months: Yes | 0.38 (≈ 0.507 µM)
Neisseria meningitidis, isolate id (sample isolate): 19043201_1, population: MSM, antibiotic use in previous 6 months: No | 0.75 (≈ 1 µM)
Neisseria meningitidis, isolate id (sample isolate): 19043201_2, population: MSM, antibiotic use in previous 6 months: No | 0.38 (≈ 0.507 µM)
Neisseria meningitidis, isolate id (sample isolate): 19043274_1, population: MSM, antibiotic use in previous 6 months: Yes | 0.5 (≈ 0.668 µM)
Neisseria meningitidis, isolate id (sample isolate): 19043274_2, population: MSM, antibiotic use in previous 6 months: Yes | 0.38 (≈ 0.507 µM)
Neisseria meningitidis, isolate id (sample isolate): 19051853_1, population: MSM, antibiotic use in previous 6 months: No | 0.38 (≈ 0.507 µM)
Neisseria meningitidis, isolate id (sample isolate): 19052394_3, population: MSM, antibiotic use in previous 6 months: Yes | 0.5 (≈ 0.668 µM)
Neisseria meningitidis, isolate id (sample isolate): 19052434_1, population: MSM, antibiotic use in previous 6 months: Yes | 0.75 (≈ 1 µM)
Neisseria meningitidis, isolate id (sample isolate): 19060069_1, population: MSM, antibiotic use in previous 6 months: Yes | 1 (≈ 1.34 µM)
Neisseria meningitidis, isolate id (sample isolate): 19060069_2, population: MSM, antibiotic use in previous 6 months: Yes | 1 (≈ 1.34 µM)
Neisseria meningitidis, isolate id (sample isolate): 19060089_2, population: MSM, antibiotic use in previous 6 months: Yes | 4 (≈ 5.34 µM)
Neisseria meningitidis, isolate id (sample isolate): 19061666_1, population: MSM, antibiotic use in previous 6 months: Yes | 3 (≈ 4.01 µM)
Neisseria meningitidis, isolate id (sample isolate): 19062990_1, population: MSM, antibiotic use in previous 6 months: Yes | 0.5 (≈ 0.668 µM)
Neisseria meningitidis, isolate id (sample isolate): 19070019_2, population: MSM, antibiotic use in previous 6 months: No | 0.38 (≈ 0.507 µM)
Neisseria meningitidis, isolate id (sample isolate): 19070019_4, population: MSM, antibiotic use in previous 6 months: No | 0.38 (≈ 0.507 µM)
Neisseria meningitidis, isolate id (sample isolate): 19070047_1, population: MSM, antibiotic use in previous 6 months: No | 0.5 (≈ 0.668 µM)
Neisseria meningitidis, isolate id (sample isolate): 19082621_2, population: MSM, antibiotic use in previous 6 months: No | 0.5 (≈ 0.668 µM)
Neisseria meningitidis, isolate id (sample isolate): 19091461_1, population: MSM, antibiotic use in previous 6 months: No | 6 (≈ 8.01 µM)
Neisseria meningitidis, isolate id (sample isolate): 19091461_2, population: MSM, antibiotic use in previous 6 months: No | 4 (≈ 5.34 µM)
Neisseria meningitidis, isolate id (sample isolate): 19091973_1, population: MSM, antibiotic use in previous 6 months: No | 0.5 (≈ 0.668 µM)
Neisseria meningitidis, isolate id (sample isolate): 19092429_3, population: MSM, antibiotic use in previous 6 months: No | 0.38 (≈ 0.507 µM)
Neisseria meningitidis, isolate id (sample isolate): 19103457_1, population: MSM, antibiotic use in previous 6 months: No | 0.38 (≈ 0.507 µM)
Neisseria meningitidis, isolate id (sample isolate): 19103457_4, population: MSM, antibiotic use in previous 6 months: No | 0.25 (≈ 0.334 µM)
Neisseria meningitidis, isolate id (sample isolate): 19110394_1, population: MSM, antibiotic use in previous 6 months: No | 0.5 (≈ 0.668 µM)
Neisseria meningitidis, isolate id (sample isolate): 19113049_3, population: MSM, antibiotic use in previous 6 months: No | 0.19 (≈ 0.254 µM)
Neisseria meningitidis, isolate id (sample isolate): 19113049_6, population: MSM, antibiotic use in previous 6 months: No | 0.25 (≈ 0.334 µM)
Neisseria meningitidis, isolate id (sample isolate): Co000765_1, population: general population, antibiotic use in previous 6 months: No | 0.5 (≈ 0.668 µM)
Neisseria meningitidis, isolate id (sample isolate): Co000790_1, population: general population, antibiotic use in previous 6 months: No | 2 (≈ 2.67 µM)
Neisseria meningitidis, isolate id (sample isolate): Co000790_3, population: general population, antibiotic use in previous 6 months: No | 1 (≈ 1.34 µM)
Neisseria mucosa/macacae, isolate id (sample isolate): 19041762_2, population: MSM, antibiotic use in previous 6 months: Yes | 3 (≈ 4.01 µM)
Neisseria mucosa/macacae, isolate id (sample isolate): 19051904_1, population: MSM, antibiotic use in previous 6 months: Yes | 2 (≈ 2.67 µM)
Neisseria mucosa/macacae, isolate id (sample isolate): 19052394_2, population: MSM, antibiotic use in previous 6 months: Yes | 4 (≈ 5.34 µM)
Neisseria mucosa/macacae, isolate id (sample isolate): 19062968_1, population: MSM, antibiotic use in previous 6 months: Yes | 16 (≈ 21.4 µM)
Neisseria mucosa/macacae, isolate id (sample isolate): 19081774_2, population: MSM, antibiotic use in previous 6 months: No | 24 (≈ 32 µM)
Neisseria mucosa/macacae, isolate id (sample isolate): 19111422_4, population: MSM, antibiotic use in previous 6 months: No | 1.5 (≈ 2 µM)
Neisseria mucosa/macacae, isolate id (sample isolate): 19111422_7, population: MSM, antibiotic use in previous 6 months: No | 1 (≈ 1.34 µM)
Neisseria mucosa/macacae, isolate id (sample isolate): Co000770_5, population: general population, antibiotic use in previous 6 months: No | 3 (≈ 4.01 µM)
Neisseria mucosa/macacae, isolate id (sample isolate): Co000771_4, population: general population, antibiotic use in previous 6 months: No | 6 (≈ 8.01 µM)
Neisseria mucosa/macacae, isolate id (sample isolate): Co000772_3, population: general population, antibiotic use in previous 6 months: No | 4 (≈ 5.34 µM)
Neisseria mucosa/macacae, isolate id (sample isolate): Co000773_3, population: general population, antibiotic use in previous 6 months: No | 2 (≈ 2.67 µM)
Neisseria mucosa/macacae, isolate id (sample isolate): Co000779_1, population: general population, antibiotic use in previous 6 months: No | 2 (≈ 2.67 µM)
Neisseria mucosa/macacae, isolate id (sample isolate): Co000783_3, population: general population, antibiotic use in previous 6 months: No | 6 (≈ 8.01 µM)
Neisseria mucosa/macacae, isolate id (sample isolate): Co000783_6, population: general population, antibiotic use in previous 6 months: No | 32 (≈ 42.7 µM)
Neisseria mucosa/macacae, isolate id (sample isolate): Co000787_3, population: general population, antibiotic use in previous 6 months: No | 4 (≈ 5.34 µM)
Neisseria mucosa/macacae, isolate id (sample isolate): Co000788_1, population: general population, antibiotic use in previous 6 months: No | 2 (≈ 2.67 µM)
Neisseria mucosa/macacae, isolate id (sample isolate): Co000788_4, population: general population, antibiotic use in previous 6 months: No | 4 (≈ 5.34 µM)

Neisseria lactamica
Conditions | minimum inhibitory concentration [µg/mL]
isolate id (sample isolate): Co000761_1 | 2 (≈ 2.67 µM)
isolate id (sample isolate): Co000771_1 | 1 (≈ 1.34 µM)

Conditions | minimum inhibitory concentration [µg/mL]
Neisseria bacilliformis | 2 (≈ 2.67 µM)
